These results are taken from patent US20230348450A1, “CARBOXYLIC ACID-CONTAINING COMPOUNDS AS MODULATORS OF BIS-PHOSPHOGLYCERATE MUTASE FOR THE TREATMENT OF SICKLE CELL DISEASE” (Genzyme Corporation, priority 2020, published 2023).

The assay concerns the target hBPGM (Homo sapiens (Human), UniProt P07738). As to the kind of experiment: BPGM Synthase Assay. To be noted: Table 6 additional results; read-out: huBPGM: synthase Enzyme IC50. It counts as biochemical. As for the experimental part:
Example B1. BPGM Synthase Assay
The following materials were used in this assay: deionized water; Bisphosphoglycerate mutase (BPGM; Standard Buffer: 50 mM Tris, 0.01% Tween 20, pH 7.4); BPGM Reaction Buffer (50 mM Tris, 0.01% Tween 20, 3.23 mM KH2PO4, pH 7.4); dithiothreitol (DTT; Stock solution: 100 mM in Standard Buffer); 384-Well Black Assay Plate (Corning, P/N 3575); DMSO; BPGM Stock Solution (500 nM in BPGM Standard Buffer); Glyceraldehyde 3-phosphate dehydrogenase (GAPDH; Stock Solution: 40 U/mL in 20 mM Tris-HCL Buffer with 20% Glycerol, 1 mM EDTA, 1 mM DTT); Glyceraldehyde 3-phosphate (GAP; Stock Solution: 20 mM in BPGM Standard Buffer); 3-PG Stock Solution (500 μM in BPGM Standard Buffer); Nicotinamide adenine dinucleotide (NAD; Stock Solution: 50 mM in BPGM Standard Buffer); Koningic Acid (1 mM Stock in DMSO); Resazurin Stock Solution (10 mM in DMSO); Diaphorase Stock Solution (40 U/mL in BPGM Standard Buffer); DTT Reaction Buffer (1 mM DTT in BPGM Reaction Buffer); Enzyme Solution (5 nM BPGM, 0.4 U/mL GAPDH in DTT Reaction Buffer); GAPDH Solution (0.4 U/mL GAPDH in DTT Reaction Buffer); Substrate Solution (2 mM NAD, 20 μM 3PG, 800 μM GAP in DTT Reaction Buffer); and Resazurin Solution (5 U/mL Diaphorase, 500 μM Resazurin in BPGM Standard Buffer).
To the assay plate was added Enzyme Solution (20 uL) to columns 2-22 and 24 of the assay plate. To columns 1 and 23 was added GAPDH Solution (20 uL). A separate compound plate was prepared at the desired concentrations and all wells were normalized with 5% DMSO. The compound plate was incubated for 30 minutes at RT. Next, the substrate solution (20 μL) was dispensed to all reaction wells and the plate was incubated for 60 minutes at RT. Koningic acid (1 μL) was added and the plate was incubated for 10 minutes at RT. During this time period, the NADH fluorescence was read at ex: 360/em: 460. Next, Resazurin Solution (10 μL) was added to all reaction wells and the plate was incubated for 30 minutes at RT. The resorufin fluorescence was then read at ex:544/em:590.

Chain of hBPGM (P07738 whole entry, looked up): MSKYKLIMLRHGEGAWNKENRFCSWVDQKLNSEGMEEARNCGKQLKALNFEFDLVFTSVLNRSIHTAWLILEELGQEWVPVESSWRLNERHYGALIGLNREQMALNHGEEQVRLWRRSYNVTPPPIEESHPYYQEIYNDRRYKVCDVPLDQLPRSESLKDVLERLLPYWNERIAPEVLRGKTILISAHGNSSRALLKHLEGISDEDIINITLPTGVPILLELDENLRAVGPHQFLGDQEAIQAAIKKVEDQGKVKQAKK

The IC50 is the concentration that inhibits the measured activity by half. For the compound `Cc1nc(COc2ccc(F)cn2)sc1-c1cnn(-c2ccc(C(=O)O)c(O)c2)c1` [Example 20], the IC50 was 2.1 µM. The result for `Cc1nc(CNCC(C)(C)C)sc1-c1cccc(-c2ccc(C(=O)O)cc2)c1` [Example 42] reads over 25 µM; that for `Cc1nc(COc2ccccn2)sc1-c1ccc(-c2ccc(C(=O)O)c(O)c2)s1` [Example 340], 3.6 µM. The result for `Cc1nc(C)c(-c2csc(-c3ccc(C(=O)O)cc3)n2)s1` [Example 291] reads 3.3 µM; that for `Cc1nc(COc2ncccn2)sc1-c1cccc(-c2ccc(C(=O)NCC(=O)N3CCC(C(=O)O)CC3)cc2)n1` [Example 90], over 25 µM; that for `Cc1nc(CN2CCOCC2)sc1-c1cccc(-c2ccc(C(=O)O)c(O)c2)c1` [Example 296], 3.7 µM.

Regarding `CCc1nc(C)c(-c2cccc(-c3ccc(C(=O)O)c(O)c3)c2)s1` [Example 323], the IC50 came to 1.6 µM. The figure for `Cc1nc(COc2ncccn2)sc1-c1cccc(-c2ccc(C(=O)O)c(C(=O)O)c2)n1` [Example 70] is 11 µM. The figure for `O=C(O)c1ccc(-c2nc(-c3ccnc(COc4ncccn4)c3)cs2)cc1` [Example 37] is 7.6 µM; for `Cc1nc(COc2ccc(C(F)(F)F)nc2)sc1-c1cccc(-c2ccc(C(=O)O)cc2)n1` [Example 61] it is 1.3 µM; for `Cc1nc(CCc2ccccc2)sc1-c1cccc(-c2ccc(C(=O)O)c(O)c2)c1` [Example 109] it is 8.1 µM. The result for `Cc1nc(COc2ncccn2)sc1-c1cccc(-c2cc(C(=O)O)co2)n1` [Example 39] reads 18 µM; that for `Cc1nc(COCc2ccccn2)sc1-c1csc(-c2cc(O)c(C(=O)O)cc2F)n1` [Example 144], 0.2 µM. `Cc1nc(COc2ncccn2)sc1-c1ccnc(-c2ccc(C(=O)O)cc2)c1` [Example 23]: the IC50 turned out to be 17 µM. The figure for `Cc1nc(COc2ncccn2)sc1-c1cccc(-c2ccc3c(C(=O)O)c[nH]c3c2)n1` [Example 334] is 1.7 µM. The result for `Cc1nc(COc2ncccn2)sc1-c1cccc(-c2ccc(C(=O)NC(CC(=O)O)c3ccccc3)cc2)n1` (stereo not drawn) [Example 35] reads 2.6 µM; that for `Cc1nc(C)c(-c2cc(-c3ccc(C(=O)O)cc3)ccc2C)s1` [Example 307], over 250 µM; that for `Cc1cc(C(=O)O)cc(C)c1-c1cccc(-c2sc(COc3ncccn3)nc2C)n1` [Example 31], over 25 µM. Take `Cc1nc(CO[C@@H]2CCCOC2)sc1-c1cccc(-c2ccc(C(=O)O)cc2)c1` [Example 47]: the IC50 is 0.98 µM. Turning to `Cc1nc(COc2ccc(F)cn2)sc1-c1ccn(-c2ccc(C(=O)O)cc2)n1` [Example 18], the IC50 amounted to 0.65 µM. The result for `COC(=O)NCc1nc(C)c(-c2cc(-c3ccc(C(=O)O)c(O)c3)sn2)s1` [Example 157] reads 0.8 µM; that for `Cc1nc(COc2ccc(F)cn2)sc1-c1cccc(-c2ccc(C(=O)O)c(C(F)F)c2)c1` [Example 29], 1.8 µM; that for `Cc1nc(CO)sc1-c1cccc(-c2ccc(C(=O)NCC(=O)N3CCC(C(=O)O)CC3)cc2)n1` [Example 89], over 25 µM. The result for `Cc1nc(Cn2cc(C(F)(F)F)cn2)sc1-c1cccc(-c2ccc(C(=O)O)cc2)n1` [Example 60] reads 0.76 µM. The figure for `Cc1nc(C)c(-c2csc(-c3ccc(O)c(C(=O)O)c3)n2)s1` [Example 321] is 7.3 µM; for `Cc1nc(C)c(-c2coc(-c3ccc(C(=O)O)c(O)c3)n2)s1` [Example 271] it is 8 µM. On to `COC(=O)NCc1ccc(-c2csc(-c3cc(O)c(C(=O)O)cc3F)n2)c(C)n1` [Example 206], for which the IC50 amounted to 2 µM. The result for `CN(C)C(=O)OCC1CCN(c2cccc(-c3ccc(C(=O)O)cc3)n2)CC1` [Example 25] reads over 25 µM. The result for `Cc1nc(C)c(COc2ccc(C(=O)O)c(O)c2)s1` [Example 338] reads over 25 µM; that for `COC(=O)NCc1nc(C)c(-c2csc(-c3cc(N)c(C(=O)O)cc3F)n2)s1` [Example 195], 1.2 µM; that for `Cc1nc(COc2ncccn2)sc1-c1cccc(-c2cc(C(=O)O)nn2C(C)C)n1` [Example 30], 15 µM. The figure for `Cc1nc(COc2ncccn2)sc1-c1cccc(-c2ccc(C(=O)N[C@@H](C(=O)O)c3ccccc3)cc2)n1` [Example 36] is 2.7 µM; for `Cc1nc(Cn2ccccc2=O)sc1-c1cccc(-c2ccc(C(=O)O)c(O)c2)c1` [Example 290] it is 2.2 µM. As to `Cc1nc(Cc2cccc(C(F)(F)F)c2)sc1-c1cccc(-c2ccc(C(=O)O)c(O)c2)c1` [Example 317], the IC50 stood at 3 µM. The result for `Cc1nc(COCC(C)(C)O)sc1-c1cccc(-c2ccc(C(=O)O)c(O)c2)c1` [Example 335] reads 0.31 µM; that for `Cc1nc(COc2ccc(F)cn2)sc1-c1ccc(-c2ccc(C(=O)O)c(O)c2)s1` [Example 341], 4.1 µM.

In the case of `Cc1nc(CNC(=O)C(C)(C)C)sc1-c1cccc(-c2ccc(C(=O)O)cc2)n1` [Example 62], the half-maximal inhibitory concentration (IC50) amounted to 1.8 µM.

With `Cc1cc(-c2ccc(C(=O)O)cc2)cc(-c2sc(C)nc2C)c1` [Example 300], the IC50 turned out to be 160 µM. The result for `Cc1ccc(C#N)c(OCCn2cc(-c3cccc(-c4ccc(C(=O)O)c(O)c4)c3)c(C)n2)n1` [Example 112] reads 35 µM. The result for `Cc1nc(C)c(-c2ccn(-c3ccc(C(=O)O)c(O)c3)n2)s1` [Example 288] reads 3.8 µM.

For `Cc1nc(C)c(-c2ccc(O)c(-c3ccc(C(=O)O)cc3)c2)s1` [Example 304], the half-maximal inhibitory concentration (IC50) turned out to be 54 µM. The figure for `COC(=O)NCc1cc(C)c(-c2csc(-c3cc(O)c(C(=O)O)cc3F)n2)s1` [Example 179] is 0.6 µM; for `Cc1ccc(C#N)c(OCCc2cnn(-c3cccc(-c4ccc(C(=O)O)c(O)c4)c3)c2)n1` [Example 303] it is 17 µM; for `Cc1nc(COc2ncccn2)sc1-c1cccc(-c2ccc(C(=O)O)cc2C(C)C)n1` [Example 28] it is over 25 µM. On to `Cc1nc(COc2ncccn2)sc1-c1cccc(-c2ccc(C(=O)O)o2)n1` [Example 33], for which the IC50 was 11 µM. With `Cc1nc(C)c(C2CCCN(c3ccc(C(=O)O)c(O)c3)C2)s1` (stereo not drawn) [Example 122], the IC50 is over 250 µM. On to `Cc1nc(COC(=O)N(C)C)sc1-c1cccc(-c2ccc(C(=O)O)cc2)n1` [Example 64], for which the IC50 turned out to be 0.91 µM. The figure for `Cc1nc(COc2ncccn2)sc1-c1cccc(-c2ccc(C(=O)N3CCC(OCC(=O)O)CC3)cc2)n1` [Example 84] is over 25 µM; for `Cc1nc(Cc2cccc(C#N)c2)sc1-c1cccc(-c2ccc(C(=O)O)c(O)c2)c1` [Example 308] it is 1 µM; for `CNC(=O)CCc1nc(C)c(-c2cccc(-c3ccc(C(=O)O)c(O)c3)c2)s1` [Example 264] it is 7 µM.

With `Cc1nc(C)c(-c2cccc(-c3ccc(O)c(C(=O)O)c3)c2)s1` [Example 318], the IC50 was 4.8 µM. The figure for `O=C(O)c1ccc(-c2nc(-c3ccnc(CO)c3)cs2)cc1` [Example 38] is over 25 µM; for `Cc1nc(CO)sc1-c1cccc(-c2ccc(C(=O)NCC(=O)N3CCC(C(=O)O)C3)cc2)n1` (stereo not drawn) [Example 92] it is over 25 µM. The result for `O=C(O)c1ccc(-c2cccc(N3CCC(COc4ncccn4)CC3)n2)cc1` [Example 24] reads over 25 µM. Regarding `Cc1ccc(C#N)c(OCc2nc(C)c(-c3cccc(-c4ccc(C(=O)O)c(O)c4)c3)s2)n1` [Example 268], the IC50 amounted to 1.2 µM. The result for `Cc1ncc(-c2cccc(-c3ccc(C(=O)O)c(O)c3)c2)s1` [Example 325] reads 3.5 µM. The figure for `Cc1nc(C)c(/C=C/c2ccc(C(=O)O)c(O)c2)s1` [Example 333] is 11 µM; for `Cc1nc(COCC2CCCCO2)sc1-c1cccc(-c2ccc(C(=O)O)cc2)c1` (stereo not drawn) [Example 45] it is 1.4 µM. The result for `Cc1nc(C(=O)O)sc1-c1cccc(-c2cc(F)c3[nH]nnc3c2F)n1` [Example 342] reads 1.9 µM; that for `Cc1nc(C)c(-c2ccc(=O)n(-c3ccc(C(=O)O)c(O)c3)c2)s1` [Example 319], over 250 µM.

Turning to `Cc1nc(CC2CCCCC2)sc1-c1cccc(-c2ccc(C(=O)O)c(O)c2)c1` [Example 313], the IC50 amounted to 9.1 µM. The figure for `CC(=O)NCCc1nc(C)c(-c2cccc(-c3ccc(C(=O)O)c(O)c3)c2)s1` [Example 258] is 11 µM; for `Cc1nc(C)c(-c2cccc(-c3ccc(C(=O)O)cc3)c2F)s1` [Example 297] it is 28 µM.
